PubChem BioAssay (NCI)
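GI50 = concentration required for 50% inhibition of growth. At the TGI there is no net growth.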

Key:
Assay in all cases: DTP human tumour cell line panel, 384-well format
UO-31 renal = system: UO-31 renal
UACC-257 melanoma = system: UACC-257 melanoma
KM12 colon = system: KM12 colon
SF-539 CNS = system: SF-539 CNS
HOP-92 NSCLC = system: HOP-92 NSCLC
MALME-3M melanoma = system: MALME-3M melanoma
CCRF-CEM leukemia = system: CCRF-CEM leukemia
COLO 205 colon = system: COLO 205 colon
T-47D breast = system: T-47D breast
M14 melanoma = system: M14 melanoma
LOX IMVI melanoma = system: LOX IMVI melanoma
MCF7 breast = system: MCF7 breast
A549 NSCLC = system: A549 NSCLC

Row | SMILES | GI50 (UO-31 renal) [µM] | TGI (UO-31 renal) [µM] | GI50 (UACC-257 melanoma) [µM] | TGI (UACC-257 melanoma) [µM] | GI50 (KM12 colon) [µM] | TGI (KM12 colon) [µM] | GI50 (SF-539 CNS) [µM] | TGI (SF-539 CNS) [µM] | GI50 (HOP-92 NSCLC) [µM] | TGI (HOP-92 NSCLC) [µM] | GI50 (MALME-3M melanoma) [µM] | TGI (MALME-3M melanoma) [µM] | GI50 (CCRF-CEM leukemia) [µM] | TGI (CCRF-CEM leukemia) [µM] | GI50 (COLO 205 colon) [µM] | TGI (COLO 205 colon) [µM] | GI50 (T-47D breast) [µM] | TGI (T-47D breast) [µM] | GI50 (M14 melanoma) [µM] | TGI (M14 melanoma) [µM] | further results
1 | CC(=O)N1CC(F)(F)c2c(Sc3ncc(N4CCC5(CC4)COC[C@H]5N)nc3N)cccc21 | 6.39 | 20.3 | 14.4 | 27.6 | 2.97 | 13.5 | 8.31 | 21.1 | 2.17 | 14.2 | 8.55 | 20.8 | 15.3 | 28.6 | 16.6 | 32 | 11.5 | 26.3 | 10.4 | 22.4 | GI50 (LOX IMVI melanoma): 12.4 µM; TGI (LOX IMVI melanoma): 25 µM; GI50 (MCF7 breast): 0.0453 µM; TGI (MCF7 breast): 11.4 µM; GI50 (A549 NSCLC): 14.1 µM; TGI (A549 NSCLC): 35.2 µM
2 | Cc1nc(NC(=O)N2CCC[C@H]2C(N)=O)sc1-c1ccnc(C(C)(C)C(F)(F)F)c1 | 8.46 | 58.5 | 23 | 70.3 | 25.8 | > 92.8 | 12.5 | 38.3 | 3.09 | 20.6 | 6.66 | 29.4 | 3.51 | 15.6 | 7.15 | 43.4 | 0.0839 | 0.592 | 15 | > 74.2 | GI50 (LOX IMVI melanoma): 7.55 µM; TGI (LOX IMVI melanoma): 28 µM; GI50 (MCF7 breast): 0.205 µM; TGI (MCF7 breast): 17.8 µM; GI50 (A549 NSCLC): 6.07 µM; TGI (A549 NSCLC): 23.7 µM
